Entries after “also recorded” stand apart in the source; their conditions may differ. Like-named read-outs stand apart in the source and are kept apart here. Where no end group is shown, it is not given here.
Key:
FN/CD9 interaction = experiment: ELISA modified for effects of metal salts on the FN/CD9 interaction; type: binding, human; conditions: 0-4.5 mM metal salt
Description: The standard ELISA assay format was modified to evaluate the effects of divalent and monovalent metal salts on the FN/CD9 interaction. The ELISA buffers contained 0.5 mM EGTA and metal salt was excluded from antigen plating and primary wash step. Antigen was plated in Buffer D. The plates were washed once with Buffer E and then blocked with Blocking Buffer 2. Subsequent steps up to and including the second wash after the FN overlay were done in Buffer F, which contained 0-4.5 mM metal salt. After the FN overlay, plates were washed once with Buffer F (+/−metal salt), then twice with Buffer G. The subsequent incubations and washes were performed with Buffer G.

human coronary SMCs [1] = experiment: Verification that hydroxyurea prevents SMC proliferation (thymidine incorporation); type: cell-based; conditions: 5 mM hydroxyurea
Description: (§1) Cell migration was measured via a monolayer-wounding assay, as described by Brown et al. (Circ Res. 84:655-667 (1999), which is hereby incorporated by reference in its entirety). Briefly, 100% confluent cells were treated with serum-free medium containing hydroxyurea (5 mM)(DMEM supplemented with 100 U/mL penicillin, 100 μg/mL streptomycin and 5 mM hydroxyurea) for 24 h before the start of experiments. Hydroxyurea was used to prevent cell proliferation and block the possible effect of CD9 on SMCs proliferation. The capacity of hydroxyurea to prevent proliferation was verified by showing that it inhibited thymidine incorporation by >99%. After incubation with hydroxyurea, cells were rinsed with DMEM (serum free), and a ≈1 mm wide scratch was made with a sterile 20 ul tip with the help of a ruler. After that, the cells were incubated in the DMEM medium. […] Plates were rinsed twice with PBS, and analyzed via computerized image analysis system (scion Image CMS-800). Cell migration was expressed as the distance migrated in the 24 hours (Chang et al., Circ. Res. 91(5):390-397 (2002), which is hereby incorporated by reference in its entirety). […]

FN [2] = experiment: ELISA for fibronectin binding to immobilized CD9, His6-rCD9 or peptide; parameters: species or system human; conditions: for soluble FN binding to immobilized peptide compared to intact platelet purified CD9: FN 75 μg/ml
Description: (§2) All incubation periods for the CD9/FN binding ELISA lasted two hours at RT unless otherwise indicated. Immulon I (Dynatech) microtiter plate wells were coated with CD9 (2 μg/ml), His6-rCD9 (2 μg/ml), BSA (10 μg/ml), or peptide (10 μM) in Buffer A. After one wash with Buffer B, plates were blocked with Blocking Buffer 1.1% BSA was included in steps from ligand overlay to addition of mAb conjugate to minimize non-specific binding. Titrations of human plasma FN in Buffer B were added to plates either alone, or in the case of competition ELISAs, with 0-160 μM synthetic peptide. Plates were washed three times with ELISA Buffer B, followed by incubation with a 1/1000 dilution of rabbit anti-FN antibody. After two washes with Buffer B and one wash with Buffer C, plates were incubated with 1/500 antirabbit IgG alkaline phosphatase in Buffer C for one hour at RT. After four washes with Buffer C, 1 mg/mlp-nitrophenyl phosphate substrate was added and the absorbance at 405 nm was recorded.

FN [3] = molecular target: FN (Homo sapiens, UniProt P02751); experiment: Surface plasmon resonance biosensor analysis of FN captured by anti-FN mAbs; type: binding
Sequence of FN (Homo sapiens, UniProt P02751) (P02751 32-2477): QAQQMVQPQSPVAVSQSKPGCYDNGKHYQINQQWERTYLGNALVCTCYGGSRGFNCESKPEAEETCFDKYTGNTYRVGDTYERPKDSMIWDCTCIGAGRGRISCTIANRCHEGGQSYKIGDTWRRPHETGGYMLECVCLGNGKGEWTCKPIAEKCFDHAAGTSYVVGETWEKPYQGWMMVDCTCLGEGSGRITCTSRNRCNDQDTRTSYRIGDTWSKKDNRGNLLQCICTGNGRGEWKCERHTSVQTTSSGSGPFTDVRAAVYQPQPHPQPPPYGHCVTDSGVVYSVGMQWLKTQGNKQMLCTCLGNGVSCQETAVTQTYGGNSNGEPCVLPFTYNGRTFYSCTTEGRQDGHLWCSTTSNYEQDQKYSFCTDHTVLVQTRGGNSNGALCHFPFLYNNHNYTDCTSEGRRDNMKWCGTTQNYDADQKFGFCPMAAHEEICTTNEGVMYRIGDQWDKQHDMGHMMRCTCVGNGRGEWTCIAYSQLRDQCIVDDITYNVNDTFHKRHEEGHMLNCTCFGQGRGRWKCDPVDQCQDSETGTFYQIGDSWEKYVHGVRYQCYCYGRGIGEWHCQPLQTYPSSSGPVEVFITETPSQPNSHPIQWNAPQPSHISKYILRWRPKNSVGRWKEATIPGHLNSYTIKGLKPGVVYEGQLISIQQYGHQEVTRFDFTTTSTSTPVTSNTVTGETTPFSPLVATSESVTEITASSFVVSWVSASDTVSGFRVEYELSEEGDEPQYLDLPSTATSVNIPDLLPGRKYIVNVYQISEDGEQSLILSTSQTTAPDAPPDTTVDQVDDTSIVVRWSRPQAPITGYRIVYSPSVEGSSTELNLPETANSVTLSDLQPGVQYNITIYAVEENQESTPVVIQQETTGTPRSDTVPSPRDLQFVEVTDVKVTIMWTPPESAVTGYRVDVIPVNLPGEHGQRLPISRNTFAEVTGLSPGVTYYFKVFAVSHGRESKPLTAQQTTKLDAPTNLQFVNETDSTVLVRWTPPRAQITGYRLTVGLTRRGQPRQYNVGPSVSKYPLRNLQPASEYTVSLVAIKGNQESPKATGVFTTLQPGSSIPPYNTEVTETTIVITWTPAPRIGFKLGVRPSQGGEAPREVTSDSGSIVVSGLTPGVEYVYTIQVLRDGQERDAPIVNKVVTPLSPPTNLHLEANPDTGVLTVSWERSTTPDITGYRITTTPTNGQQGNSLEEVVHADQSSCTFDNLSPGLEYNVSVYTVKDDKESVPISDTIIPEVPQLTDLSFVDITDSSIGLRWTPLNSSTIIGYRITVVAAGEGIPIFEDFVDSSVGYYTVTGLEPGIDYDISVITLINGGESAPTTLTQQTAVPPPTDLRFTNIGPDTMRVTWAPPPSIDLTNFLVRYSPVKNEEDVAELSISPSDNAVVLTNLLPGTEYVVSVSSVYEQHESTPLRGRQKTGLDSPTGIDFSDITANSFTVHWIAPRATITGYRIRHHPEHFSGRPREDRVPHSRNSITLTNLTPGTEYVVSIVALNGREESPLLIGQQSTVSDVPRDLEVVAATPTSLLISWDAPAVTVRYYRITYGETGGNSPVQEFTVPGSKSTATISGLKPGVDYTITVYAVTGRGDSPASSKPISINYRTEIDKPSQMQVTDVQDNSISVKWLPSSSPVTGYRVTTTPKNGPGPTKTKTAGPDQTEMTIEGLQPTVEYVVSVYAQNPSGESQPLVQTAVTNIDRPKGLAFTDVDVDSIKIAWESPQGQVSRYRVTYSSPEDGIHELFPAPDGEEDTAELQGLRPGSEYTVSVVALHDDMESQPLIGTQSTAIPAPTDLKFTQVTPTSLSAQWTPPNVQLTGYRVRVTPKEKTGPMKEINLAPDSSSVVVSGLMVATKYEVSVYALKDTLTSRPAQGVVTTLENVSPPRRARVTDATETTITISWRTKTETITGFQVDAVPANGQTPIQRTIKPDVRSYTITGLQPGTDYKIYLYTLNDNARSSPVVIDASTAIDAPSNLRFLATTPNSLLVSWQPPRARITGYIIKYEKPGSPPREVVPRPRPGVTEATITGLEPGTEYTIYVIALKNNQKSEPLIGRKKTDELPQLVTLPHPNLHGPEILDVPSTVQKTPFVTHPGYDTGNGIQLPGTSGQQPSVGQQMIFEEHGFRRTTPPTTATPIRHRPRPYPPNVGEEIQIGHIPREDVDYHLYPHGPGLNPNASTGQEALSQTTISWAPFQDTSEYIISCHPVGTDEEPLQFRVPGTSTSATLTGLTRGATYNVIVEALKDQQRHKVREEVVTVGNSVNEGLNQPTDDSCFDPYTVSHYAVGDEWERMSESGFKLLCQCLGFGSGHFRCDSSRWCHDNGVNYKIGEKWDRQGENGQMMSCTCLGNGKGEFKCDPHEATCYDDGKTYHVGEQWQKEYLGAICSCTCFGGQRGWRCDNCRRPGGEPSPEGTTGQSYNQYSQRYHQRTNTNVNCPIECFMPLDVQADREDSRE

CHO A6 cells = experiment: Basic adhesion assay of CHO A6 cells on FN; type: cell-based; conditions: 0.5 μM peptide, 3 hours
Description: 24-well culture plate wells were coated with human plasma FN (10 μg/mL FN in PBS for 3 hours at 37° C.) and blocked with PBS, 3% bovine serum albumin (BSA) for 1 hour at 37° C. Mock- and CD9-CHO cells were harvested as described previously. After a 30-minute rest period at 37° C., 10^5 cells/well were seeded in FN-coated 24-well plates and incubated for 3 hours at 37° C. For some experiments, cells were incubated in the presence of 0.5 μM of peptides corresponding to amino acid sequences of CD9 EC2. Wells were washed 4 times with adhesion media, stained with modified Wright Giemsa, and adherent cells were counted in five randomly selected high-power fields of view per well using an inverted phase contrast microscope, Olympus IMT-2 (Olympus, Lake Success, N.Y.). All assays were run in triplicate, and the cell counts were reported as the number of adherent cells/mm^2 of well surface area. The mean number of adherent cells/mm^2±SE of 3 independent assays were reported (n=45).

[4] = system: mAb7 binding to CD9 expressed on CHO A6 cells; experiment: Flow cytometry: peptide blocking of mAb7 binding to CD9 on CHO A6 cells; parameters: species or system human; conditions: 100 μg peptide with 1 μg mAb7
Description: 100 μg of peptide 5a, 5, 5b, or 6a was incubated with 1 μg mAb7 for 30 minutes at room temperature. CD9 CHO cells (clone A6) were harvested, washed twice with PBS, and resuspended in labeling media (2.5×10^5 cells/mL); 4 μL mAb7-peptide solution was added to 2.5×10^5 cells and incubated for 1 hour at 4° C. MOPC2, and mAb7 alone were used as negative and positive controls, respectively. Cells were washed with PBS, resuspended in labeling media, and bound mAb7 was detected with a species-specific FITC-conjugated second antibody, followed by flow cytometry as described above.

CD9-CHO-B2 cells = experiment: Adhesion of CD9-CHO-B2 cells (lacking integrin α5β1) to FN, peptide inhibition; type: cell-based; conditions: peptide 0.5 μM
Description: CHO cell adhesion assays were done as described by Cook et al. (Exp. Cell. Res. 251:356-371 (1999), which is hereby incorporated by reference in its entirety). Briefly, 24-well cell culture plates (Coming, Acton, Mass.) were coated with FN (10 μg/ml) and blocked with PBS, 3% BSA. CHO cells were cell synchronized, harvested, and resuspended at 1×10^5 cell/ml in adhesion media (RPMI, 1% BSA). For peptide inhibition studies, peptides were added to CHO cell suspension to give a final concentration of 0.5 μM and cells were incubated at 37° C. for 30 minutes. 1 ml CHO cell suspension was added to each well and CHO cells were allowed to adhere for either 3 or 6 hours, then adherent cells were stained with Wright Giemsa and counted.

CD9-CHO cells = type: cell-based; conditions: FN coated inserts blocked with peptide (0.5 μM)
Description: The motility assays were performed using two methodologies. The first method was modified from Bauer et al. (J. Cell. Biol. 116:477-487 (1992), which is hereby incorporated by reference in its entirety). Cell cycle synchronized CHO cells were seeded into tissue culture plates, grown to approximately 50% confluency, and harvested. The cells were washed twice with Media A, adjusted to 4×10^5/ml, allowed to rest at 37° C. for 30 min in Media B, then transferred into modified Boyden chambers. The upper and lower chambers were separated by a polycarbonate filter, with 8 μm pores, pre-coated on the underside only with 10 μg/ml FN. After 3 or 6 hours, cells on the FN-coated side of the filters were fixed, stained with hematoxylin, and mounted onto slides. The total numbers of adherent cells from five high-powered fields (HPF) per filter were counted per time point per assay. The second method for assessing the motility of CD9-transfected CHO cells utilized 10 mm polycarbonate tissue culture inserts with 8 μm pores (Nunc, Rochester, N.Y.). Tissue culture inserts were coated on the underside with FN as described above for Boyden Chambers. […] CHO cells adhered to the FN-coated underside of tissue culture inserts were stained with Wrights Giemsa and the number of adherent cells in five random high power fields were counted per time point per assay. […]

human coronary SMCs [5] = experiment: SMC migration, monolayer-wounding assay; type: cell-based; conditions: 2% serum, 24 h
Description: as §1

FN-CD9 binding = experiment: Competition ELISA: effect of peptides on FN binding to immobilized CD9; parameters: species or system human
Description: as §2

[6] = FN concentration, 2.5 mM Ca2+, read-out: half maximal binding with FN

With `[Ca+2].[Cl-].[Cl-]` [CaCl2] the “effect of cation on CD9/FN interaction” value (FN/CD9 interaction) was “stimulated”.
For `NC(=O)NO` [hydroxyurea], the inhibition at 5000 µM (human coronary SMCs [1]) was > 99%.
In the case of “CD9: purified platelet CD9, 24 kDa integral membrane glycoprotein (SEQ ID NO: 1)”, the “half-maximal binding of soluble FN to immobilized CD9” value (FN [2]; 2.5 mM CaCl2, FN concentration) is reported as 35.6 µg/mL, the EC50 (FN [2]; 2.5 mM CaCl2, FN concentration, read-out: half-maximal binding of soluble FN to immobilized CD9) is reported as 81 nM and the EC50 (FN [2]; [6]) is reported as 81 nM. For the same molecule, the Kd (FN [2]; platelet-derived or recombinant CD9, read-out: affinity of FN-CD9 interaction) was 80 nM and the “association between captured FN and purified CD9” value (FN [3]) was “specific association”.
“His6-rCD9: bacterially expressed histidine tagged recombinant CD9” was tested, and the EC50 (FN [2]; [6]) was 120 nM and the “binding to FN lower than for purified CD9 (absolute ELISA values)” value (FN [2]; versus purified platelet CD9) was 40%.
“KDEPQRETLKAIHYALNCCGLAGGVEQFISDICPKKDV [peptide 5b]” was tested, and the “effect on adhesive phenotype of CHO A6 cells on FN” value (“effect on adhesive phenotype” for short) (CHO A6 cells) was “equivalent to that of CHO MOCK cells; also recorded: reversed the adhesive phenotype; also recorded: reversed the inhibitory influence of CD9” and the “blocking of mAb7 binding to cell surface CD9” value (from here on “blocking of mAb7 binding”) [4] was “blocked mAb7 binding to soluble CD9 and to CD9 on intact cells”.
In the case of “KEFDFKAPSVCKVEDIDTKTL [peptide 6S, reference compound]”, the “effect on CD9-CHO-B2 cell adhesion to FN” value (CD9-CHO-B2 cells) is reported as “no significant effect” and the “effect on CD9-mediated CHO cell motility to FN” value (CD9-CHO cells) is reported as “lack of inhibition”.
With PKKDVLETFTVKSCPDAI [peptide 6a] the “effect on adhesive phenotype” value (CHO A6 cells) was “equivalent to that of CHO MOCK cells; also recorded: reversed the inhibitory influence of CD9” and the “blocking of mAb7 binding” value [4] was “blocked mAb7 binding”.
In the case of PKKDVLETFTVKSCPDAIKEVFDNK [peptide 6], the “direct binding of FN” value (FN [2]) is reported as “binds directly”, the “soluble FN binding to immobilized peptide compared to intact platelet purified CD9” value (FN [2]) is reported as 65% and the “effect on adhesive phenotype” value (CHO A6 cells) is reported as “reversed the adhesive phenotype”. For the same molecule, the “effect on SMC migration” value (human coronary SMCs [5]) was “dose dependent inhibitory effect”, the “maximal inhibitory effect on serum-induced migration” value (human coronary SMCs [5]; at 40 μM) was ~65% and the “inhibition of FN binding to CD9” value (FN-CD9 binding; peptide 0-160 μM) was “significantly inhibited; also recorded: competitively inhibited binding of FN to purified CD9 in a dose-dependent fashion; also recorded: partially inhibited”. The “peptide concentration at maximal inhibition of FN binding to CD9” value (FN-CD9 binding; titration 0-160 μM) was 60 µM, the “effect on CD9-CHO-B2 cell adhesion to FN” value (CD9-CHO-B2 cells) was “able to block” and the “effect on CD9-CHO-B2 cell adhesion to FN” value (CD9-CHO-B2 cells; listed as Peptide 6) was “inhibited the adhesion level of CD9-CHO-B2 cells on FN to that seen with Mock-CHO-B2 cells”. For the same molecule, the “effect on CD9-mediated CHO cell motility to FN” value (CD9-CHO cells) was “competitively inhibited” and the “blocking of mAb7 binding” value [4] was “blocked mAb7 binding to soluble CD9 and to CD9 on intact cells”.
YKDTYNKLKTKDEPQRETLKAI [peptide 5] was tested, and the “soluble FN binding to immobilized peptide compared to intact platelet purified CD9” value (FN [2]) was 19%, the “effect on adhesive phenotype” value (CHO A6 cells) was “no effect” and the “blocking of mAb7 binding” value [4] was “neither peptide 5a nor 5 blocked”.
YSHKDEVIKEVQEFYKDTYNKLKT [peptide 5a] was tested, and the “blocking of mAb7 binding” value [4] was “neither peptide 5a nor 5 blocked”.

— patent US20040136985A1, “Methods of modifying behavior of CD9-expressing cells” (priority 2002, published 2004)
